Measurements reported in patent US5447916A, “Peptoid alpha-1 adrenergic receptor ligands” (Chiron Corporation, priority 1993, dated 1995).

Target: α1-adrenergic receptors
Assay: 3H-Prazosin binding assay on rat forebrain membranes
Conditions: for IC50 / Ki: 0.5 nM 3H-Prazosin; for Ki: 1 hr at room temperature; for Percent Inhibition: Inhibition at 100 nM (100 nM receptor concentration as printed), 3H-Prazosin
Experimental: Preparation of Rat Forebrain Membranes:
Rat brains were purchased from Animal Technologies, Tyler, Tex., and shipped on wet ice within 24 hours after being harvested. The forebrains were dissected and homogenized with a Tissue Tearor in 50 mM Tris, pH 7.5, containing 20 mM NaCl, 5 mM EGTA, 2 mM MgCl2, 21 μg/mL aprotinin, 0.5 mg/L leupeptin, 0.7 mg/L pepstatin, 0.2 mM PMSF. Each brain is homogenized in approximately 5 mL of this buffer. The homogenate is then spun at 1000 RPM (75×g) in a Sorval RC-5B centrifuge (SS-34 rotor) for 10 min. The pellets are discarded and the supernatants then respun at 17,000 RPM (22,500×g) for 15 min. The pellets were then resuspended in the same buffer as above containing 5 mM EDTA and no MgCl2 (1 brain/mL). Membranes were stored in 1 mL aliquots at -70° C.
Thawed membranes were dispersed into a homogenous solution by passing them through a 22 gauge needle 5 times. To initiate the assay, 50 μL of membrane were dispensed into a plastic 12×75 mm tube containing 1 mL of 50 mM Tris, pH 7.5, 0.5 nM ^3 H-Prazosin (New England Nuclear), and the compounds to be tested. Nonspecific binding was determined as ^3 H-Prazosin bound in the presence of 5 μM unlabeled prazosin. Incubation was for 1 hr at room temperature. Unbound radioactivity was removed by rinsing the membranes on Whatman GF/B glass fiber filters. Each filter was washed 3 times with 3 mL of 50 mM Tris, pH 7.5, 4° C. Filters were soaked overnight in 5 mL of Beckman ReadySafe scintillation cocktail then counted for one minute in a Wallac 1409 liquid scintillation counter.

IC50 | Ki | Percent Inhibition | Molecule
0.019 µM | 0.007 µM |  | NC(=O)CN(CCc1ccccc1)C(=O)CN(C(=O)CNCCc1ccc(O)cc1)c1ccc(-c2ccccc2)cc1 [Nhtyr--Nbiph--Nhphe, Nhtyr-Nbiph-Nhphe]
1.4 µM | 0.313 µM |  | Nhtyr--Nbiph--Nbhm
 |  | 22.7% | Nphtyr-Nbiph-Nhphe [Nphtyr--Nbiph--Nhphe]
 |  | 53.9% | Nzhphe-Nbiph-Nhphe [Nzhphe--Nbiph--Nhphe]
 |  | 24.8% | Bz-Nhphe-Nbiph-Nhphe [Bz--Nhphe--Nbiph--Nhphe]
 |  | 21.2% | Nhtyr-Nbiph-Nmhphe [Nhtyr--Nbiph--Nmhphe]
 |  | 48.3% | Nhtyr-Nbiph-Nphphe [Nhtyr--Nbiph--Nphphe]
0.49 µM | 0.14 µM |  | Nhtyr-Npop-Nhphe [Nhtyr--Npop--Nhphe]
 |  | 20.3% | Nhtyr- Npbiph-Nhphe [Nhtyr--Npbiph--Nhphe]

Molecule | IC50 | Ki | Percent Inhibition
Noco-Nbiph-Nhphe [Noco--Nbiph--Nhphe] |  |  | 23.6%
